{
  "source": "patent US20060228297A1",
  "about": "“Thorium-227 for use in radiotherapy of soft tissue disease” (priority 2003, published 2006)",
  "key": {"adult dogs": {"system": "adult dogs", "settings": "cited from earlier work; for % of baseline at nadir (neutrophils) / Days to nadir (neutrophils): dogs"}, "[1]": {"system": "CD20 antigen expressing human lymphoma cell line DAUDI", "assay": "Binding of ^227Th labeled antibody to DAUDI human lymphoma cells", "settings": "for Mean cpm bound per cell pellet, Unblocked: 2×10^7 DAUDI cells, two hours at 8° C., mean of a duplicate; for Mean cpm bound per cell pellet, Blocked: cells pre-saturated with 40 μg unlabeled rituximab; for Thorium-227 atoms bound per cell, Blocked: cells pre-saturated with unlabeled rituximab", "procedure": "DAUDI cells were purchased from European Collection of Cell Cultures (ECACC), Salisbury, UK, and grown according to supplier's instructions using culture medium and supplement from Gibco (Paisley, Scotland, UK) and using 500 ml culture flasks (Cell Star, Greiner Bio-One GmbH, Frickenhausen, Germany). DAUDI cells (2×10^7 cells in 0.7 ml PBS) were used to study binding of ^227Th labeled rituximab in vitro. As control of nonspecific binding, DAUDI cells pre-saturated (blocked) with 40 μg unlabeled rituximab for 15 minutes were used. To the test tubes (Polystyrene culture test tubes, 12×75 mm, Elkay, Shrewsbury, Mass., USA) were added ^227Th labeled rituximab corresponding to 1.3, 5.3, or 26 μg/ml respectively. The experiment was performed in duplicate at each concentration level using unblocked and blocked cells. Incubation was performed for two hours at 8° C. After incubation, cell suspensions were counted for radioactivity (Crystal II Multidetector, Packard Instrument Company Inc. Downers Grove, Ill., USA) and the cells washed with 2 ml of 1% BSA (Albumin, Bovine Fraction V, Sigma Chemical Co., St. Louis, Mo., USA) in PBS (Gibco, Paisley, Scotland, UK) and centrifuged (Centrifuge 5810 R, Eppendorf AG, Hamburg, Germany) at 200 rpm for 5 minutes. The washing/centrifugation was repeated twice. Thereafter the cell pellets were counted for radioactivity. The results (each the mean of a duplicate) are set out in Table 3 below."}, "[2]": {"settings": "13 kBq/kg single intravenous injection"}, "[3]": {"settings": "40 kBq/kg single intravenous injection"}, "[4]": {"settings": "120 kBq/kg single intravenous injection"}, "[5]": {"settings": "350 kBq/kg single intravenous injection"}},
  "note": "Like-named read-outs stand apart in the source and are kept apart here.",
  "data": [
    {"molecule": "[224Ra]", "note": "[^224Ra, radium-224]", "values": [
      {"measurement": "Death caused by haematological dyscrasia resulting from bone marrow destruction, number of dogs", "setting": "adult dogs; 350 kBq/kg", "result": "3 dogs out of 8"},
      {"measurement": "% of baseline at nadir (neutrophils)", "setting": "adult dogs; [2]", "result": 60, "unit": "%"},
      {"measurement": "Days to nadir (neutrophils)", "setting": "adult dogs; [2]", "result": 30, "unit": "days"},
      {"measurement": "% of baseline at nadir (neutrophils)", "setting": "adult dogs; [3]", "result": 70, "unit": "%"},
      {"measurement": "Days to nadir (neutrophils)", "setting": "adult dogs; [3]", "result": 10, "unit": "days"},
      {"measurement": "% of baseline at nadir (neutrophils)", "setting": "adult dogs; [4]", "result": 20, "unit": "%"},
      {"measurement": "Days to nadir (neutrophils)", "setting": "adult dogs; [4]", "result": 10, "unit": "days"},
      {"measurement": "% of baseline at nadir (neutrophils)", "setting": "adult dogs; [5]", "result": 4, "unit": "%"},
      {"measurement": "Days to nadir (neutrophils)", "setting": "adult dogs; [5]", "result": 10, "unit": "days"}
    ]},
    {"molecule": "^227Th-labeled rituximab", "values": [
      {"measurement": "Thorium-227 atoms bound per cell, Net specific bound", "setting": "[1]; RIC conc. 1.3 μg/ml added", "result": 1.7},
      {"measurement": "Thorium-227 atoms bound per cell, Unblocked", "setting": "[1]; RIC conc. 1.3 μg/ml added", "result": 1.9},
      {"measurement": "Mean cpm bound per cell pellet, Unblocked", "setting": "[1]; RIC conc. 1.3 μg/ml added", "result": 226, "unit": "cpm"},
      {"measurement": "Mean cpm bound per cell pellet, Blocked", "setting": "[1]; RIC conc. 1.3 μg/ml added", "result": 25, "unit": "cpm"},
      {"measurement": "Thorium-227 atoms bound per cell, Blocked", "setting": "[1]; RIC conc. 1.3 μg/ml added", "result": 0.2},
      {"measurement": "Thorium-227 atoms bound per cell, Net specific bound", "setting": "[1]; RIC conc. 5.3 μg/ml added", "result": 9.3},
      {"measurement": "Thorium-227 atoms bound per cell, Unblocked", "setting": "[1]; RIC conc. 5.3 μg/ml added", "result": 10.1},
      {"measurement": "Mean cpm bound per cell pellet, Unblocked", "setting": "[1]; RIC conc. 5.3 μg/ml added", "result": 1186, "unit": "cpm"},
      {"measurement": "Mean cpm bound per cell pellet, Blocked", "setting": "[1]; RIC conc. 5.3 μg/ml added", "result": 97, "unit": "cpm"},
      {"measurement": "Thorium-227 atoms bound per cell, Blocked", "setting": "[1]; RIC conc. 5.3 μg/ml added", "result": 0.8},
      {"measurement": "Thorium-227 atoms bound per cell, Net specific bound", "setting": "[1]; RIC conc. 26.0 μg/ml added", "result": 32.5},
      {"measurement": "Thorium-227 atoms bound per cell, Unblocked", "setting": "[1]; RIC conc. 26.0 μg/ml added", "result": 35.2},
      {"measurement": "Mean cpm bound per cell pellet, Unblocked", "setting": "[1]; RIC conc. 26.0 μg/ml added", "result": 4141, "unit": "cpm"},
      {"measurement": "Mean cpm bound per cell pellet, Blocked", "setting": "[1]; RIC conc. 26.0 μg/ml added", "result": 315, "unit": "cpm"},
      {"measurement": "Thorium-227 atoms bound per cell, Blocked", "setting": "[1]; RIC conc. 26.0 μg/ml added", "result": 2.7},
      {"measurement": "RIC bound to the unblocked vs. the blocked cells", "setting": "[1]; on average over the three concentrations", "result": "about 12 times"},
      {"measurement": "Specific binding to the DAUDI cells", "setting": "[1]; unblocked vs. blocked cells", "result": "did bind specifically"}
    ]}
  ]
}
